The text below walks through data of patent US12391674B2, “Heterocyclic compounds for the treatment of epilepsy” (OTSUKA PHARMACEUTICAL CO., LTD., priority 2018, dated 2025).

The structures appear in SMILES notation.

Data set [1] deals with DBA/2 mice. The data set can be described thus: Audiogenic seizure model. It is filed as in vivo. The settings on record: Mus musculus, DBA/2 mice, oral, auditory stimulation 1 hour after administration, read-out: Seizure suppression. In a few lines:
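Male and female DBA/2 mice (3 weeks old, 8/group) dosed orally at 30 mg/kg in 5% gum arabic; 1 h later exposed to 12.6 kHz, 100-110 dB tone for 1 min or until tonic seizure. Maximum seizure score (0–4) recorded; suppression rate graded A (≥90%), B (70–<90%), C (50–<70%).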

Data set [2] deals with ICR mice. As to the kind of experiment: Rotarod test (motor coordination). The following applies: oral, rotarod 1 hour after administration. It is filed as in vivo, mouse. Put shortly:
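Motor coordination was assessed in male ICR mice (Japan SLC, Inc., 5-6 weeks old, 8 per group). Animals were first trained to stay for 2 minutes on a rotarod turning at a fixed 15 rpm. One hour after oral dosing, each mouse was placed on a rod accelerating from 4 rpm to 40 rpm over 5 minutes, and latency to fall was recorded for up to 200 seconds. Latencies were expressed relative to the mean of the solvent-treated group.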

For the compound `Cc1cc(Oc2cccc(OC(F)(F)F)c2)ccc1N1CCC(=O)NC1=O` [Example 336], in data set [1], the inhibition in vivo at 30 mg/kg lay in the range of 70 to 90%. Moreover, the Motor dysfunction entry in data set [2] (dose 30 mg/kg) is listed as “A (a coordination disorder of 25% or less)”.

For `CC1(C)CC(=O)NC(=O)N1c1ccc(Oc2ccccc2)cc1` [Example 337, 6,6-Dimethyl-1-(4-Phenoxyphenyl)Dihydropyrimidine-2,4 (1H,3H)-Dione], the inhibition in vivo at 30 mg/kg in data set [1] is greater than 90%. In data set [2] (dose 30 mg/kg), the Motor dysfunction result is “A (a coordination disorder of 25% or less)”.

Take `O=C1CCN(c2ccc(Cc3ccc(OC(F)(F)F)cc3)cc2)C(=O)N1` [Example 340]: in data set [1], the inhibition in vivo at 30 mg/kg fell in the range of 70 to 90%. For the same compound, in data set [2] (dose 30 mg/kg), the Motor dysfunction result was “A (a coordination disorder of 25% or less)”.

On to `CCC1CC(=O)NC(=O)N1c1ccc(Oc2ccccc2)cc1` (stereo not shown) [Example 343, 6-Ethyl-1-(4-Phenoxyphenyl)Dihydropyrimidine-2,4 (1H,3H)-Dione], for which the inhibition in vivo at 30 mg/kg in data set [1] is greater than 90%. Moreover, the Motor dysfunction result in data set [2] (dose 30 mg/kg) is listed as “A (a coordination disorder of 25% or less)”.

Consider `O=C1CCN(c2ccc(Oc3ccccc3)nn2)C(=O)N1` [Example 347, 1-(6-Phenoxypyridazin-3-Yl)Dihydropyrimidine-2,4 (1H,3H)-Dione], for which the inhibition in vivo at 30 mg/kg in data set [1] was greater than 90%. Further, the Motor dysfunction entry in data set [2] (dose 30 mg/kg) is on record as “A (a coordination disorder of 25% or less)”.

On to `N#Cc1cc(-c2cnc(Oc3ccccc3)nc2)ccn1` [Example 348], for which the inhibition in vivo at 1 mg/kg in data set [1] (dose 1 mg/kg) was greater than 90%. The Motor dysfunction result in data set [2] (dose 1 mg/kg) is recorded as “A (a coordination disorder of 25% or less)”.

Turning to `N#Cc1ccc(-c2cnc(Oc3ccccc3)nc2)nc1` [Example 349], in data set [1] (dose 3 mg/kg), the inhibition in vivo at 3 mg/kg was greater than 90%. Besides, the Motor dysfunction entry in data set [2] (dose 3 mg/kg) was “A (a coordination disorder of 25% or less)”.

As for `N#Cc1cccc(-c2cnc(Oc3ccccc3)nc2)n1` [Example 350], in data set [1] (dose 10 mg/kg), the inhibition in vivo at 10 mg/kg is greater than 90%. For the same compound, in data set [2] (dose 10 mg/kg), the Motor dysfunction result is on record as “A (a coordination disorder of 25% or less)”.
